Source: paper PMC5947712, “High‐Throughput Kinetic Analysis for Target‐Directed Covalent Ligand Discovery” (Angewandte Chemie (International Ed. in English), 2018)

Legend:
Cdk2(C177A) = molecular target: T1, Cdk2(C177A) (Homo sapiens, UniProt P24941, C177A); test: Intact protein mass spectrometry of labelling, Cdk2(C177A); assay type: binding
T1 construct: made in house; host or cells: E. coli Tuner(DE3)
Protocol: (§1) Hs!Cyclin!A2!F!5’![…]!
(§2) Hs!Cyclin!A2!R!5’![…]!
(§3) Sc!CAK1!R!5’!GAATTCttatgggcttttctaattcttgcaag!
GSTBCdk2" and" GSTBcyclin" A2:! Harvested! cells! were! resuspended! in! 50! mM! HEPES! buffer! (pH7.5)! containing! 150! mM! NaCl,!
10!mM!MgCl2,!2!mM!dithiothreitol!(DTT),!0.5!mg!mLR1!lysozyme,!and!0.01%!Triton!XR100!at!4!˚C!and!incubated!for!30!minutes.!
After! sonication! and! centrifugation! (40! min,! 16000! g),! the! supernatant! was! incubated! for! 1! h! with! glutathioneRSepharose!
beads,! washed! with! lysis! buffer! and! the! desired! protein! eluted! with! 10! mM! GSH! (100! mM! Tris,! pH! 8).! After! incubation! the! deR
sired! protein! was! cleaved! from! the! GST! tag! with! PreScission! protease! (100:1)! at! 4 °C! for! 4! hours,! the! cleaved! GST! tag! was!
removed! with! glutathioneRSepharose! beads.! Cdk2! was! concentrated! and! then! loaded! onto! a! Superdex! 75! (16/60)! column,!
eluting! with! 100! mM! phosphate! buffer! containing! 50! mM! DTT.! Purified! Cdk2! was! concentrated! to! 10! mg! mLR1!and! stored! at!–
80! ˚C.! Cyclin! A2! was! purified! by! glutathioneRSepharose! affinity! as! described! above! with! the! following! amendments:! 100! mM!
MgCl2!was! added! after! GST! cleavage! to! minimise! protein! aggregation! and! gel! filtration! was! performed! with! 50! mM! […]
(§4) labelling! reached! completion! (as! monitored! by! fluorescence! quench! assay! and/or! intact! protein! mass! spectrometry).! […]

Cdk2(WT) = Cdk2(WT) (Homo sapiens, UniProt P24941); test: Intact protein mass spectrometry of labelling, Cdk2(WT); assay type: binding; set-up: made in house; host or cells: E. coli Tuner(DE3)
Protocol: Supplementary, Figure, S6!|!Acrylamide, 1,selectivity, profile.!Exponential! regressions! from!kinetic! analysis! of! acrylamide!1!
(0.5!mM)!in!reaction!with!various!thiols!(5!µM).!
Supplementary, Figure, S7!|!Cdk2(WT),is, mono%modified, by, acrylamide, 1.!(a)!Cdk2(WT)! was! phosphorylated! with! CAK1.!
pCdk2(WT)! (5! µM)! was! then! incubated! with! acrylamide!1!(0.5! mM)! in! 100! mM! phosphate! buffer!(pH! 8.0)! at! 4! ˚C! for! 18! hours.!
IntactRprotein! mass! spectra! show! complete! phosphorylation! (ΔMW! =! 80! Da)! and! complete! acrylamide! labeling! (ΔMW! =!
288!Da).!(b)!Cdk2(WT)! (5! µM)! was! incubated! with! acrylamide!1!(0.5! mM)! in! 100! mM! phosphate! buffer! (pH! 8.0)!in! the!presR
ence! or! absence! of! GSH! (1! mM)! at! room! temperature.!The! degree! of! labelling! was! monitored! by!intactRprotein! mass!specR
trometry!after!6.25!and!24!h.!The!presence!of!1!mM!GSH!was!found!to!slow!the!rate!of!Cdk2!modification!by!a!factor!of!~2.! […]
as §1, §2, §3
GSTBCdk2" and" GSTBcyclin" A2:! Harvested! cells! were! resuspended! in! 50! mM! HEPES! buffer! (pH7.5)! containing! 150! mM! NaCl,! […]
as §4

modification of Cdk2(C177A) by intact protein mass spectrometry (Cdk2(C177A)): unaffected | factor by which 1 mM GSH slows the rate of Cdk2 modification (Cdk2(WT); Cdk2(WT) 5 µM, compound 0.5 mM, pH 8.0, room temperature, monitored after 6.25 and 24 h): ~ 2 | modification of Cdk2(WT) by intact protein mass spectrometry (Cdk2(WT); even in the presence of millimolar glutathione): mono‐modifies
SMILES: C=CC(=O)N1CCN(C(=O)OC(C)(C)C)c2ccccc21 [Acrylamide 1]
